In patent publication US20240262783A1, “PHARMACEUTICAL SALT OF FINGOLIMOD, PREPARATION METHOD, PHARMACEUTICAL COMPOSITION AND USE THEREOF” (SHANGHAI BOCIMED PHARMACEUTICAL CO., LTD., priority 2021, published 2024):
≈ marks a conversion by molar mass, not a printed value. Counter-ions that a name gives are not always drawn. Like-named read-outs stand apart in the source and are kept apart here.

Experiments:
[1] = Comparison of solubility (shaken at 37° C. for 24 h, HPLC); assay type: physicochemical; details: for Solubility: 24 h; for solubility at 24 h: 37 °C, thermodynamic from solid
Experimental: The crystalline form 1 of Fingolimod 1-hydroxy-2-naphthoate prepared in Example 14, the crystalline form B of Fingolimod embonate prepared in Example 2, Fingolimod hydrochloride and the Fingolimod free base prepared in Example 12 were added to corresponding media described below. The mixtures were shaken at 37° C. for 24 h and filtered through 0.45 μm aqueous-phase filter membranes. The filtrates were collected for determination of solubility by high-performance liquid chromatography. The corresponding media were acetate buffer solutions at pH 3 and pH 5 and phosphate buffer solutions at pH 7 and pH 9, and the water was ultrapure water.

[2] = Comparison of solid state stability (related substances by HPLC); assay type: physicochemical; details: for Solid state stability, total related substances (in words): stood in high temperature, high humidity, accelerated, illumination and long-term conditions for 10 d
Experimental: Method for Detecting Related Substances by HPLC [table] The crystalline form 1 of Fingolimod 1-hydroxy-2-naphthoate prepared in Example 14, the crystalline form A of Fingolimod embonate prepared in Example 3, and Fingolimod hydrochloride were stood in a high temperature (60° C.)condition, a high humidity (25° C./90% RH) condition, an accelerated (40° C./75% RH) condition, an illumination (1.2× 10^6 Lux·hr) condition, and a long-term (25° C./60% RH) condition, and samples were taken on day 0, day 5, and day 10 for related substance detection by HPLC.

[3] = male, SD, rat, in vivo, po, 0.1 mg/kg
Experimental: Six male SD rats were divided into two groups. […] In the whole study, the animals in the intramuscular injection group were given ad libitum access to food and water, and those in the oral group were fasted overnight before administration and given access to food at 4 h post-dose.
Collection of plasma sample: about 150 μL of blood was collected from the jugular vein (whole blood was centrifuged within 30 min to isolate plasma) and placed in a tube containing anticoagulant EDTA-K2, and after treatment, plasma was stored in a freezer at −70° C. before use.
Pretreatment of plasma sample: to 30 μL of plasma sample, 200 μL of internal standard solution (40 ng/mL Glipizide acetonitrile solution) was added; the mixture was vortexed for 1 min and centrifuged at 5800 rpm at 4° C. for 10 min; 100 μL of supernatant was transferred to a new plate 5 μL of the solution was taken for LC-MS/MS.

[4] = in vivo; details: male, SD, rat, po, 0.1 mg/kg
[5] = Pharmacokinetic study in male SD rats (plasma Fingolimod by LC-MS/MS)
[6] = Accelerated (40° C./75% RH), Day 5
[7] = Accelerated (40° C./75% RH), Day 10
[8] = Day 0 (baseline, all conditions)
[9] = High humidity (25° C./90% RH), Day 5
[10] = High humidity (25° C./90% RH), Day 10
[11] = High temperature (60° C.), Day 5
[12] = High temperature (60° C.), Day 10
[13] = Illumination (1.2× 10^6 Lux·hr), Day 5
[14] = Illumination (1.2× 10^6 Lux·hr), Day 10
[15] = Long-term (25° C./60% RH), Day 5
[16] = Long-term (25° C./60% RH), Day 10
[17] = injection group, intramuscular 3 mg/kg

| Molecule | Solubility ([1]; Water (ultrapure), 37° C.) | Solubility ([1]; pH 3 acetate buffer, 37° C.) | Solubility ([1]; pH 5 acetate buffer, 37° C.) | Changes in total related substances relative to day 0 [2, 6] | Changes in total related substances relative to day 0 [2, 7] | Changes in total related substances relative to day 0 [2, 8] | Changes in total related substances relative to day 0 [2, 9] | Changes in total related substances relative to day 0 [2, 10] | Changes in total related substances relative to day 0 [2, 11] | Changes in total related substances relative to day 0 [2, 12] | Changes in total related substances relative to day 0 [2, 13] | Changes in total related substances relative to day 0 [2, 14] | Changes in total related substances relative to day 0 [2, 15] | Changes in total related substances relative to day 0 [2, 16] | Solubility ([1]; pH 7 phosphate buffer, 37° C.) | Solubility ([1]; pH 9 phosphate buffer, 37° C.) | Solid state stability, total related substances (in words) [2] | other results |
| --- | --- | --- | --- | --- | --- | --- | --- | --- | --- | --- | --- | --- | --- | --- | --- | --- | --- | --- |
| CCCCCCCCc1ccc(CCC(N)(CO)CO)cc1 [Fingolimod] |  |  |  |  |  |  |  |  |  |  |  |  |  |  |  |  |  | Time post-dose at which plasma concentration reached the peak value [3]: 12 h; MRT [4]: 12 h |
| Fingolimod 1-hydroxy-2-naphthoate | 5.46 µg/mL | 20.07 µg/mL | 9.17 µg/mL | −0.09% | −0.07% | 0% | −0.04% | −0.07% | −0.05% | −0.16% | −0.05% | 0.02% | −0.17% | −0.15% | 0.54 µg/mL | 0.58 µg/mL | remained substantially unchanged | Solubility in water relative to the solubility of Fingolimod free base ([1]; water): one fourth to one fifth; Solubility in water relative to the solubility of Fingolimod hydrochloride ([1]; water): one thousandth to one twenty-six hundredth; Cmax relative to dose (in words) ([5]; injection group 3 mg/kg versus oral group 0.1 mg/kg): did not increase in proportion to the dose; MRT [5, 17]: 288 h; Time for plasma concentration to reach a relatively steady state [5, 17]: ≤ 1 days; Time plasma concentration was maintained above 0.3 ng/ml [5, 17]: at least 15 days; Time post-dose at which plasma concentration reached the peak value ([5]; injection group, intramuscular 3 mg/kg (Example 18 sample)): 3 h |
| Fingolimod embonate [listing 1 of 2 here] |  |  |  | 0% | −0.11% | 0% | 0.12% | 0.11% | −0.04% | −0.21% | 0.2% | 0.3% | 0.08% | −0.01% |  |  | relatively stable in other conditions than the illumination condition where the impurities were slightly increased |  |
| Fingolimod embonate [listing 2 of 2 here] | 0.2 µg/mL | 36.18 µg/mL | 1.75 µg/mL |  |  |  |  |  |  |  |  |  |  |  | 21.26 µg/mL | 5.8 µg/mL |  |  |

Now from value to molecule, other results behind:

| Solubility ([1]; Water (ultrapure), 37° C.) | Solubility ([1]; pH 3 acetate buffer, 37° C.) | Solubility ([1]; pH 5 acetate buffer, 37° C.) | Changes in total related substances relative to day 0 [2, 6] | Changes in total related substances relative to day 0 [2, 7] | Changes in total related substances relative to day 0 [2, 8] | Changes in total related substances relative to day 0 [2, 9] | Changes in total related substances relative to day 0 [2, 10] | Changes in total related substances relative to day 0 [2, 11] | Changes in total related substances relative to day 0 [2, 12] | Changes in total related substances relative to day 0 [2, 13] | Changes in total related substances relative to day 0 [2, 14] | Changes in total related substances relative to day 0 [2, 15] | Changes in total related substances relative to day 0 [2, 16] | Solubility ([1]; pH 7 phosphate buffer, 37° C.) | Solubility ([1]; pH 9 phosphate buffer, 37° C.) | Molecule | Solid state stability, total related substances (in words) [2] | other results |
| --- | --- | --- | --- | --- | --- | --- | --- | --- | --- | --- | --- | --- | --- | --- | --- | --- | --- | --- |
| about 23 μg/mL | 5561.36 µg/mL (≈ 18.1 mM) | 473.53 µg/mL (≈ 1.54 mM) |  |  |  |  |  |  |  |  |  |  |  |  |  | CCCCCCCCc1ccc(CCC(N)(CO)CO)cc1 [Fingolimod free base, reference compound] |  |  |
|  |  |  | −0.07% | 0.01% | 0% | −0.07% | −0.07% | 0.03% | 0.02% | −0.04% | −0.03% | 0.04% | −0.12% |  |  | CCCCCCCCc1ccc(CCC(N)(CO)CO)cc1 [Fingolimod hydrochloride, reference compound] |  | Behaviour of the salt in the media (in words) [1]: dissociated into the Fingolimod free base; solubility at 24 h ([1]; pH 3, aqueous buffer): > 33500 µg/mL; solubility at 24 h ([1]; pH 5, aqueous buffer): > 15600 µg/mL; solubility at 24 h ([1]; pH 7, aqueous buffer): < 0.15 µg/mL; solubility at 24 h ([1]; pH 9, aqueous buffer): < 0.15 µg/mL; solubility at 24 h ([1]; water): ~14000 µg/mL; Solubility [1]: >13900 µg/mL |
